From patent US11390617B2, “Methods of treating non-Hodgkin lymphoma using 2-(2,6-dioxopiperidin-3-yl)-4-((2-fluoro-4-((3-morpholinoazetidin-1-yl)methyl)benzyl)amino)isoindoline-1,3-dione” (Celgene Corporation, priority 2019, dated 2022)

Columns and labels:
U-2973 = experiment: NHL cell line viability/apoptosis 384-well flow cytometry assay; assay type: cell-based; details: U-2973, 120 hours
Procedure, shortened: (§1)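 Read-out is flow cytometry with Annexin V and the impermeant DNA dye DRAQ7 after 120 hours of compound exposure over 0.00015 to 10 μM. Live-cell counts relative to DMSO give IC50 and Emax; percent apoptosis relative to DMSO gives EC50 and Ymax, with AUC for both.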

OCI-LY7 = experiment: as above; assay type: cell-based; details: OCI-LY7 (DLBCL), 120 hours
Procedure, shortened: as §1

U-2932 = experiment: as above; assay type: cell-based; details: U-2932 (DLBCL), 120 hours
Procedure, shortened: as §1

OCI-LY18 = experiment: as above; assay type: cell-based; details: OCI-LY18 (DLBCL), 120 hours
Procedure, shortened: as §1

RIVA = experiment: as above; assay type: cell-based; details: RIVA (DLBCL), 120 hours
Procedure, shortened: as §1

STR428 = experiment: as above; assay type: cell-based; details: STR428 (DLBCL), 120 hours
Procedure, shortened: as §1

[1] = system: RL follicular lymphoma xenograft tumors; experiment: RL (follicular lymphoma) xenograft model, monotherapy; assay type: in vivo, female SCID mice; details: 5 days on 2 days off for 3 weeks
Method: Anti-tumor activity of Compound 1 was evaluated as monotherapy (between 1 and 30 mg/kg, qd) in RL (follicular lymphoma) xenograft model.
Xenograft study was conducted with female SCID mice bearing RL follicular lymphoma xenograft tumors. Female SCID mice were inoculated subcutaneously with RL cells in the flank region above the right hind leg. Following inoculation of animals, the tumors were allowed to grow to approximately 200 mm^3 prior to randomization. On day 14 following tumor cell inoculation, the mice bearing RL tumors ranging between 150 and 250 mm^3 were pooled together and randomized into various treatment groups. Compound 1 was formulated in 0.5% Methyl Cellulose, 0.25% Tween 80 and 50 mM Citrate pH 3 in water. Compound 1 at 1, 3, 10 or 30 mg/kg was orally administered once daily with a 5 days on and 2 days off schedule for 3 weeks starting from day 14 after tumor cell inoculation. Tumors were measured twice a week using calipers and tumor volumes were calculated using the formula of W^2×L/2. Statistical analysis was performed using a one-way or 2-way analysis of variance (ANOVA). Synergy calculations were performed using fractional product method.

[2] = Homo sapiens, read-out: IC50 (% Viable Cells)
[3] = read-out: IC50 (% Viable Cells)
[4] = 3, 10 and 30 mg/kg oral once daily

## O=C1CC[C@H](N2C(=O)c3cccc(NCc4ccc(CN5CC(N6CCOCC6)C5)cc4F)c3C2=O)C(=O)N1 [Compound 1, (S)-2-(2,6-dioxopiperidin-3-yl)-4-((2-fluoro-4-((3-morpholinoazetidin-1-yl)methyl)benzyl)amino)isoindoline-1,3-dione]
U-2973; Homo sapiens
  EC50: 2160 nM
U-2973; [2]
  IC50: 6780 nM
U-2973
  AUC (% Viable Cells): 853.4
  AUC (Apoptosis): 391.9
  Emax (% Viable Cells): 19.45%
  Ymax (Apoptosis): 60.8%
OCI-LY7; Homo sapiens
  EC50: 16.3 nM
OCI-LY7; [2]
  IC50: 6.48 nM
OCI-LY7
  AUC (% Viable Cells): 48.18
  AUC (Apoptosis): 682.7
  Emax (% Viable Cells): 4.191%
  Ymax (Apoptosis): 71.18%
U-2932; Homo sapiens, U2932
  EC50: 567 nM
U-2932; Homo sapiens, U2932, read-out: IC50 (% Viable Cells)
  IC50: 36 nM
U-2932
  AUC (% Viable Cells): 163.7
  AUC (Apoptosis): 212.8
  Emax (% Viable Cells): 12.8%
  Ymax (Apoptosis): 25.81%
OCI-LY18; Homo sapiens
  EC50: 2.98 nM
OCI-LY18; [2]
  IC50: 0.944 nM
OCI-LY18
  AUC (% Viable Cells): 1.965
  AUC (Apoptosis): 965.2
  Emax (% Viable Cells): 0.05973%
  Ymax (Apoptosis): 97.44%
RIVA
  AUC (% Viable Cells): 452.6
  AUC (Apoptosis): 242.8
  EC50: 17.7 nM
  Emax (% Viable Cells): 36.65%
  Ymax (Apoptosis): 27.92%
RIVA; [3]
  IC50: 114 nM
STR428
  AUC (% Viable Cells): 43.48
  AUC (Apoptosis): 905.9
  EC50: 102 nM
  Emax (% Viable Cells): 1.227%
  Ymax (Apoptosis): 95.17%
STR428; [3]
  IC50: 94.7 nM
[1]; 1 mg/kg oral once daily
  inhibited RL follicular lymphoma tumor growth: −96.8%
[1]; [4]
  tumor free animals: all the animals became tumor free
  tumor growth: completely inhibited
